# Reference: US10758500B2, “Treating androgen deprivation therapy induced hot flashes and bone loss in men using cis-clomiphene” (ASPEN PARK PHARMACEUTICALS, INC., priority 2014, dated 2020)
# Tested on: Men who have advance prostate cancer on ADT
# Test: Effect of cis-clomiphene on bone turnover markers and BMD (Example 2)
# Format: in vivo, human
# Details: 50 mg/d for 6 months, Day 180 compared with baseline
# Method: Men who have advance prostate cancer on ADT are treated with 50 mg/d of substantially cis-clomiphene for 6 months. At Day 180, baseline bone turnover markers like serum bone specific alkaline phosphatase and are compared to current values as well as BMD by DEXA.
# Bone analysis methodology may be carried out as described in U.S. Patent Publication No. 2004/0214898, the pertinent contents of which are incorporated herein by reference.
structure (smiles),measurement,value
CCN(CC)CCOc1ccc(/C(=C(/Cl)c2ccccc2)c2ccccc2)cc1 [cis-clomiphene],effects on bone: bone turnover markers (serum bone specific alkaline phosphatase) and BMD by DEXA,estrogenic effects on bone favorably affecting bone turnover markers and BMD
